Source: patent US6365314B1, “Toner for developing electrostatic image, image forming method and process cartridge” (Canon Kabushiki Kaisha, priority 1994, dated 2002)

Test: Solubility measurement of charge control agent in methanol
Assay type: physicochemical
Conditions: stirred 1 hour at 50° C., cooled to room temperature, 0.1 μm-filter, absorbance vs 20 ppm standard
Protocol: The solubility of the charge control agent may be measured in the following manner.
<Solubility measurement of charge control agent>
2 g of a charge control agent is weighed and placed in a 300 ml Erlenmeyer flask to which 100 ml of methanol is added. The system is heated to 50° C. under stirring and the stirring is further continued for 1 hour (when all the charge control agent is dissolved, the charge control agent is further added successively at an increment of 2 g each under continued stirring). Then, the system is cooled to room temperature and the insoluble charge control agent is removed by a 0.1 μm-filter to measure the absorbance (A) of the solution at a maximum absorption wavelength by using a spectrophotometer.
wherein I denotes a transmitted light intensity through a solution, I0 denotes a transmitted light intensity through a solvent (=methanol), ε0 denotes an absorption coefficient, C denotes the concentration of the charge control agent, and d denotes the thickness of the solution for the absorbance measurement.

| Structure (SMILES) | SMeOH (solubility in methanol) | SMeOH (solubility in methanol) (listed as Azo-type iron complex (1)) [g/100 ml)] |
| --- | --- | --- |
| O=C(Nc1ccccc1)c1cc2ccccc2c2c1[O][Fe]1([O]c3ccc(Cl)cc3N=N2)[O]c2ccc(Cl)cc2N=Nc2c(c(C(=O)Nc3ccccc3)cc3ccccc23)[O]1 (stereo not shown) [Complex (1)] | SMeOH = 0.87 g/100 ml) | 0.87 |
| O=C(Nc1ccccc1)c1cc2ccccc2c2c1[O][Fe]1([O]c3c(Cl)cc(Cl)cc3N=N2)[O]c2c(Cl)cc(Cl)cc2N=Nc2c(c(C(=O)Nc3ccccc3)cc3ccccc23)[O]1 (stereo not shown) [Complex (2)] | SMeOH = 0.75 g/100 ml) | – |
| O=C(Nc1cccc([N+](=O)[O-])c1)c1cc2ccccc2c2c1[O][Fe]1([O]c3ccc(Cl)cc3/N=N/2)[O]c2ccc(Cl)cc2/N=N/c2c(c(C(=O)Nc3cccc([N+](=O)[O-])c3)cc3ccccc23)[O]1 [Complex (3)] | SMeOH = 0.71 g/100 ml) | – |
| O=C(Nc1cccc([N+](=O)[O-])c1)c1cc2ccccc2c2c1[O][Fe]1([O]c3c(cc(Cl)cc3[N+](=O)[O-])/N=N/2)[O]c2c(cc(Cl)cc2[N+](=O)[O-])/N=N/c2c(c(C(=O)Nc3cccc([N+](=O)[O-])c3)cc3ccccc23)[O]1 [Complex (4)] | SMeOH = 0.65 g/100 ml) | – |
| Cc1ccccc1NC(=O)c1cc2ccccc2c2c1[O][Fe]1([O]c3cc(Cl)c([N+](=O)[O-])cc3/N=N/2)[O]c2cc(Cl)c([N+](=O)[O-])cc2/N=N/c2c(c(C(=O)Nc3ccccc3C)cc3ccccc23)[O]1 [Complex (5)] | SMeOH = 0.65 g/100 ml) | – |
| Cc1ccccc1NC(=O)c1cc2ccccc2c2c1[O][Fe]1([O]c3ccccc3N=N2)[O]c2ccccc2N=Nc2c(c(C(=O)Nc3ccccc3C)cc3ccccc23)[O]1 (stereo not shown) [Complex (6)] | SMeOH = 0.76 g/100 ml) | – |
